Measurements taken from patent publication US20240159744A1, “COLON CANCER DIAGNOSIS OR DETECTION COMPOSITION FOR PREDICTING RESPONSE TO DRUG, AND COMPOSITION FOR PREVENTING OR TREATING COLON CANCER” (priority 2020, published 2024).

Assays:
[1] = tested on: HCT-15 tumor-bearing mice; assay: Tumor-targeting ability and biodistribution of DOX, C-prodrug, EGF-prodrug; type: in vivo; conditions: intravenous, 24 hours
Description: In addition, the tumor-targeting ability of DOX, the C-prodrug and the EGF-prodrug was compared.

HCT-8-bearing mice = assay: Antitumor effect of EGF-prodrug in vivo; conditions: 1 mg/kg of DOX, 6 times every 3 days, 21 days
Method: 2×10^6 HCT-15 cells or HCT-8 cells were subcutaneously inoculated to Balb/c-nude mice. […] The injection was carried out into the tail vein every 3 days for a total of 6 times. Antitumor effect was evaluated by sacrificing the mice to which the HCT-15 or HCT-8 cells were administered and measuring the volume of tumor tissue. The volume of the tumor tissue was calculated every day or every other day by 0.53×length×width^2. Tumor growth was monitored for 21 days. After sacrificing the mice, the HCT-15 or HCT-8 tumor tissues were collected. The dissected tumors were imaged and fixed by treating with 4% paraformaldehyde. […] The sections were used for histological or pathological investigation. They were stained with H&E for visualization and subjected to TUNEL assay using a […] TUNEL system (Promega, WI, USA) for investigation of the apoptosis of cancer cells. The tumor tissues stained with H&E and TUNEL were observed using a BX51 optical microscope (Olympus, Tokyo, Japan) and a TCS SP8 confocal laser microscope.

[2] = tested on: HCT-15, HT29, Lovo and HCT-8 cells; assay: In-vitro toxicity test (CCK-8), statements over all four cell lines; type: cell-based, human; conditions: 48 hours
Method: First, HCT-15 cells were plated on a 96-well plate at a density of 5×10^3 cell/well. […] 48 hours later, the medium was removed and the cells were treated with a cell counting kit (CCK-8, Dojindo, Japan) at 37° C. for 1 hour. Absorbance was measured at 450 nm using a VERSAmax™ microplate reader (Molecular Devices Corp., CA, USA). The cell viability of each group (n=5) was represented as a percentage of normal untreated cells (control group). […] After removing the medium, cell viability was evaluated by CCK-8 assay.

[3] = tested on: HCT-15 tumor-bearing mice; assay: In-vivo and ex-vivo fluorescence imaging of EGF-Cy5.5, C-probe, EGF-probe; conditions: cryosections, confocal
Method: The biodistribution of the EGF-probe intravenously administered to mice having HCT-15, HT29, Lovo or HCT-8 tumors was evaluated. First of all, 6-week-old Balb/c-nude mice (Nara-Biotec, Gyeonggi-do, Korea) were prepared and each cell was subcutaneously inoculated into the nude mice at the right flank at a concentration of 2×10^6 cells/mouse to generate tumors. […] At 24 hours after the administration of the EGF-probe, the mouse was imaged using an IVIS fluorescence imaging system. […] IVIS fluorescence imaging was conducted at 24 hours after the administration. Major organs and tumors were obtained and imaged with an IVIS imaging system. The fluorescence intensity of the organs and tumors was analyzed using the Living Image 2.50 software. […] The tumor tissue sections were counter-stained with DAPI and visualized with a confocal microscope.

Molecule	ex-vivo distribution in organs and tumor [1]	tumor size (HCT-8-bearing mice)	cytotoxicity versus concentration [2]	fluorescence of tumor tissue sections [3]
COc1cccc2c1C(=O)c1c(O)c3c(c(O)c1C2=O)C[C@@](O)(C(=O)CO)C[C@@H]3O[C@H]1C[C@H](N)[C@H](O)[C@H](C)O1.Cl [DOX, doxorubicin hydrochloride]	significant amounts were accumulated also in the lung, liver and kidney	not controlled significantly	increased with the concentration	
(Ac)CGFLG-DOX [C-prodrug]		not controlled significantly		
Cy5.5-GFLGGK(BHQ-3)GG-COOH [C-probe]				much weaker fluorescence signals
